Experimental findings from ChEMBL document CHEMBL1201862, “PubChem BioAssay data set” (2004) are described below.

What all share (assay): NCI-60 cell line screen, 48 h
For assay [1], the system named is A549.
For assay [2], the system named is ACHN.
Assay [3] concerns CCRF-CEM.
In assay [4] the test system is HL-60.
Assay [5] relates to HOP-92.
The subject of assay [6] is HT-29.
The subject of assay [7] is Hs-578T.
The test system of assay [8] is IGROV-1.
The test system of assay [9] is K562.
The subject of assay [10] is MDA-MB-231.
Assay [11] deals with NCI/ADR-RES.
Assay [12] relates to OVCAR-3.
Assay [13] deals with OVCAR-8.
Assay [14] has as its system RPMI-8226.
Assay [15] deals with RXF 393.
In assay [16] the test system is SF-268.
Assay [17] deals with SK-MEL-28.
The subject of assay [18] is SK-MEL-5.
For assay [19], the system named is SR.
Assay [20] concerns UO-31.

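48-hour exposure; five concentrations; linearly interpolated endpoints. Abbreviation: GI50, concentration required for 50% inhibition of growth.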 Activity calls are given as the source filed them. No stated cut-off is given here; in the data, active = GI50 up to about 1.1 µM and inactive = higher.

Regarding `O=C1C(CN2CCCC2)CCCC1CN1CCCC1` (centres undefined), the GI50 was 19.8 µM (inactive) in assay [1]; 1.82 µM (inactive) in assay [2]; 0.0318 µM (active) in assay [3]; 0.326 µM (active) in assay [4]; 0.229 µM (active) in assay [5]; 14.7 µM (inactive) in assay [6]. For the same compound, the GI50 in [7] is 28 µM (inactive); in assay [8] it was 17.1 µM (inactive); in assay [9] it was 0.206 µM (active); in [10] it was 15.8 µM (inactive); in assay [11], 6.1 µM (inactive); in assay [12] it was 5.01 µM (inactive). The GI50 was 4.37 µM (inactive) in assay [13]; 0.9 µM (active) in assay [14]; 2.69 µM (inactive) in assay [15]; 25.8 µM (inactive) in [16]; 3.85 µM (inactive) in [17]; 16.6 µM (inactive) in [18]. Besides, the GI50 is 3.04 µM (inactive) in [19] and 0.791 µM (active) in assay [20].
Consider `COc1ccc(/C=C/C(=O)c2cccc(C(=O)/C=C/c3ccc(OC)c(OC)c3)n2)cc1OC`, for which the GI50 in [1] is > 100 µM (inactive); in assay [2] it was 25.8 µM (inactive); in assay [3], 1.05 µM (active); in assay [4], 1.15 µM (inactive); in [5], > 100 µM (inactive); in [6], 7.87 µM (inactive). For the same compound, the GI50 in assay [7] is > 48.2 µM (inactive); in [8] it was 25.9 µM (inactive); in assay [9], 3.69 µM (inactive); in assay [10] it was 25.4 µM (inactive); in assay [11], 24.8 µM (inactive); in assay [12], > 54.8 µM (inactive). For the same compound, the GI50 in assay [13] is 3.27 µM (inactive); in [14], 3.23 µM (inactive); in assay [15], 40.4 µM (inactive); in assay [16] it was 36.9 µM (inactive); in assay [17] it was 15.8 µM (inactive); in assay [18] it was 98.4 µM (inactive). The values for the GI50 in assay [19] and in assay [20] were 2.91 µM (inactive) and 16.4 µM (inactive), respectively.
With `CC1(C)OC(=S)N(c2ccccc2)C12C=Cc1cc3ccccc3cc1O2` (centres undefined), the GI50 in [1] was > 100 µM (inactive); in assay [2], > 100 µM (inactive); in assay [3] it was > 100 µM (inactive); in [4], 16.6 µM (inactive); in assay [5], > 100 µM (inactive); in [6], > 100 µM (inactive). The GI50 in assay [7] was > 100 µM (inactive); in assay [8], 6.28 µM (inactive); in [9], 41.3 µM (inactive); in assay [10], > 100 µM (inactive); in assay [11], > 100 µM (inactive); in assay [12], > 100 µM (inactive). Also, the GI50 in [13] is > 100 µM (inactive); in [14] it was 92 µM (inactive); in assay [15], > 100 µM (inactive); in assay [16], > 100 µM (inactive); in assay [17], > 100 µM (inactive); in assay [18] it was > 100 µM (inactive). Moreover, the GI50 in assay [19] is 9.46 µM (inactive); in [20], > 100 µM (inactive).
Turning to `O=C1C=CC(=O)C(CNc2ccc(C(=O)OC34CC5CC(CC(C5)C3)C4)cc2)=C1`, the GI50 was 16.1 µM (inactive) in assay [1]; 6.28 µM (inactive) in [2]; 1.34 µM (inactive) in [3]; 1.53 µM (inactive) in assay [4]; 3.28 µM (inactive) in assay [5]; 9.44 µM (inactive) in [6]. In addition, the GI50 in [7] was 2.38 µM (inactive); in assay [8], 1.54 µM (inactive); in assay [9] it was 4.52 µM (inactive); in assay [10] it was 14 µM (inactive); in assay [11], 3.44 µM (inactive); in assay [12], 3.06 µM (inactive). Besides, the GI50 was 5.11 µM (inactive) in assay [13]; 1.93 µM (inactive) in [14]; 1.71 µM (inactive) in assay [15]; 11.9 µM (inactive) in assay [16]; 4.69 µM (inactive) in assay [17]; 4.38 µM (inactive) in assay [18]. In addition, the GI50 in assay [19] was 3.81 µM (inactive); in assay [20] it was 4.24 µM (inactive).
As to `CC(C)/C(Cl)=N/OC(=O)Nc1ccc(F)c(Cl)c1`, the GI50 is 18.1 µM (inactive) in assay [1]; 1.88 µM (inactive) in [2]; 1.31 µM (inactive) in [3]; 2.03 µM (inactive) in [4]; 1.59 µM (inactive) in [5]; 5.69 µM (inactive) in [6]. Further, the GI50 in assay [7] was 21.6 µM (inactive); in [8] it was 12.9 µM (inactive); in [9], 1.09 µM (active); in assay [10] it was 16.2 µM (inactive); in [11], 14.5 µM (inactive); in assay [12] it was 3.4 µM (inactive). The GI50 in assay [13] is 17.4 µM (inactive); in assay [14], 1.87 µM (inactive); in assay [15], 12.9 µM (inactive); in [16] it was 19.4 µM (inactive); in assay [17], 2.23 µM (inactive); in assay [18], 13.1 µM (inactive). For the same compound, the GI50 was 1.56 µM (inactive) in assay [19] and 16.7 µM (inactive) in assay [20].
For `C/C(=N\Nc1nc2cc(Cl)ccc2s1)c1ccccn1`, the GI50 in assay [1] is 0.755 µM (active); in [2], 0.191 µM (active); in assay [3], 0.373 µM (active); in assay [4], 0.14 µM (active); in [5] it was 0.473 µM (active); in assay [6], 0.0824 µM (active). Besides, the GI50 in assay [7] was 2.89 µM (inactive); in assay [8], 0.127 µM (active); in assay [9] it was 0.136 µM (active); in assay [10], 0.405 µM (active); in [11] it was 0.343 µM (active); in assay [12], 0.0946 µM (active). Moreover, the GI50 in assay [13] is 0.177 µM (active); in assay [14], 0.264 µM (active); in assay [15], 1.99 µM (inactive); in assay [16], 0.365 µM (active); in assay [17], 2.56 µM (inactive); in assay [18] it was 0.428 µM (active). For the same compound, the GI50 was 0.228 µM (active) in assay [19] and 0.0685 µM (active) in assay [20].
Take `Cc1cc(NS(=O)(=O)c2ccc(NC(=O)c3ccc4nc5ccccc5c(Nc5ccc(S(=O)(=O)Nc6cc(C)on6)cc5)c4c3)cc2)no1`: the GI50 in assay [1], in assay [2], in assay [3], in [4], in assay [5] and in [6] was > 50 µM (inactive) each time. Also, the GI50 in [7], in [8], in assay [9], in [10], in assay [11] and in [12] was > 50 µM (inactive) throughout. Besides, the GI50 in assay [13], in [14], in assay [15], in assay [16], in [17] and in [18] was > 50 µM (inactive) in each case. Further, the GI50 in assay [19] and in [20] was > 50 µM (inactive) throughout.
On to `CCOc1nc(-c2ccccc2)cc(-c2ccc(N3CCOCC3)cc2)c1C#N`, for which the GI50 in assay [1], in [2], in [3], in assay [4], in [5] and in assay [6] was > 100 µM (inactive) in each case. For the same compound, the GI50 in assay [7], in [8], in assay [9], in assay [10], in assay [11] and in assay [12] was > 100 µM (inactive) throughout. Moreover, the GI50 in assay [13] is > 100 µM (inactive); in assay [14], 77.4 µM (inactive); in assay [15], > 100 µM (inactive); in [16] it was > 100 µM (inactive); in assay [17], > 100 µM (inactive); in assay [18], 42.5 µM (inactive). Further, the GI50 in assay [19] and in assay [20] was > 100 µM (inactive) each time.
`Brc1ccc(C2C3CSc4ccccc4C3=NN2c2ccccc2)cc1` (centres undefined): the GI50 in assay [1] was 56.9 µM (inactive); in [3], 34.8 µM (inactive); in assay [4] it was 42.9 µM (inactive); in [5] it was > 100 µM (inactive); in assay [6] it was 78.2 µM (inactive); in [7], > 100 µM (inactive). For the same compound, the GI50 in assay [8] was 74.8 µM (inactive); in assay [9] it was 77.4 µM (inactive); in assay [10] it was > 100 µM (inactive); in assay [11], 77.6 µM (inactive); in assay [12], > 100 µM (inactive); in assay [13] it was 62.1 µM (inactive). Also, the GI50 in assay [14] is 27.3 µM (inactive); in assay [15], > 100 µM (inactive); in [16], 70.1 µM (inactive); in assay [17], 67.5 µM (inactive); in [18] it was 31.8 µM (inactive); in [19], 44.2 µM (inactive). The GI50 in assay [20] was 94.8 µM (inactive).
Take `CN(C)CCCNc1ccc2c(=O)n(CCN(C)C)c(=O)n3c4ccccc4c(=O)c1c23`: the GI50 in assay [1] was 0.155 µM (active); in [2], 0.0752 µM (active); in assay [3], 0.132 µM (active); in assay [4] it was 0.15 µM (active); in [5], 0.664 µM (active); in [6] it was 0.0647 µM (active). Also, the GI50 was 1.49 µM (inactive) in assay [7]; 0.148 µM (active) in assay [8]; 0.0512 µM (active) in assay [9]; 0.164 µM (active) in assay [10]; 0.396 µM (active) in assay [11]; 0.34 µM (active) in assay [12]. For the same compound, the GI50 is 0.22 µM (active) in assay [13]; 0.129 µM (active) in [14]; 0.783 µM (active) in assay [15]; 0.603 µM (active) in assay [16]; 0.628 µM (active) in assay [17]; 0.35 µM (active) in assay [18]. Also, the GI50 in assay [19] was 0.022 µM (active); in [20], 0.355 µM (active).
